We go through 4 substances from patent publication US7687478B2, “Disialoundecasaccharide chain asparagine/fatty acid amide and medical drug containing the same” (priority 2003, dated 2010).

This experiment concerns influenza virus A/New Caledonia/20/99 (H1N1) (hemagglutinin). In words: Influenza virus (hemagglutinin) inhibiting activity with fowl blood cells. In kind it is biochemical. To be noted: A/New Caledonia/20/99 (H1N1) HA split fractions; 0.5% fowl hematid; 4° C., 60 minutes.
For “Asparagine-linked Disialoundecaoligosaccharide-behenic Acid Amide [derivative 6]”, the “amount of derivative at which influenza virus (hemagglutinin) inhibiting activity was exhibited” value is 37.5 µmol.

On to “Asparagine-linked Disialoundecaoligosaccharide-decanoic Acid Amide [derivative 3]”, for which the “amount of derivative at which influenza virus (hemagglutinin) inhibiting activity was exhibited” value came out at 190.0 µmol.

Turning to “Asparagine-linked Disialoundecaoligosaccharide-myristic Acid Amide [derivative 4]”, the “amount of derivative at which influenza virus (hemagglutinin) inhibiting activity was exhibited” value was 95.0 µmol.

On to “Asparagine-linked Disialoundecaoligosaccharide-stearic Acid Amide [derivative 5]”, for which the “amount of derivative at which influenza virus (hemagglutinin) inhibiting activity was exhibited” value came to 47.5 µmol.
